Results taken from ChEMBL document CHEMBL1122733, “Synthesis and beta-adrenergic blocking activity of new aliphatic and alicyclic oxime ethers” (J Med Chem, 1984).

Assay: Compound was evaluated for pKa value by potentiometric titration
Format: physicochemical

`C/C(=N/OCC(O)CNC(C)(C)C)C1CC1` (stereo unspecified) and `C/C(CC1CC1)=N/OCC(O)CNC(C)(C)C` (stereo unspecified) are within 0.2 log units of each other in pKa: 9.45 for the first, 9.57 for the second.

`CC(C)OCC(O)CNC(C)(C)C` (stereo unspecified) and `CC(OCC(O)CNC(C)(C)C)C1CC1` (stereo unspecified) are within 0.2 log units of each other in pKa: 9.9 for the first, 9.76 for the second.

`CC(C)=NOCC(O)CNC(C)(C)C` (stereo unspecified) and `C/C(=N/OCC(O)CNC(C)(C)C)C(C)C` (stereo unspecified) are within 0.2 log units of each other in pKa: 9.42 for the first, 9.27 for the second.

Going from `CC1C/C(=N/OCC(O)CNC(C)(C)C)CC(C)(C)C1` (stereo unspecified) to `CC1CC(OCC(O)CNC(C)(C)C)CC(C)(C)C1` (stereo unspecified), the pKa rises from 9.41 to 9.94.

`C=CC(C)(C)OCC(O)CNC(C)(C)C` (stereo unspecified) and `CC(C)(C)COCC(O)CNC(C)(C)C` (stereo unspecified) are within 0.2 log units of each other in pKa: 9.67 for the first, 9.68 for the second.

`CC(C)COCC(O)CNC(C)(C)C` (stereo unspecified) and `CC(C)(C)NCC(O)COCC1CC1` (stereo unspecified) are the same in pKa: 9.73 for the first, 9.73 for the second.

Compared with `CC(NOCC(O)CNC(C)(C)C)C1CC1` (stereo unspecified), `CC(C)(C)NCC(O)COC(C1CC1)C1CC1` (stereo unspecified) is higher in pKa: 9.1 for the first, 9.63 for the second.

`CC(C)(C)NCC(O)CON=C(C1CC1)C1CC1` (stereo unspecified) and `CC(C)(C)NCC(O)CO/N=C\C1CC1` (stereo unspecified) are the same in pKa: 9.64 for the first, 9.64 for the second.
